The source of these data is patent US20230399319A1, “Acylsulfamide Compound and Pharmaceutical Use Therefor” (Japan Tobacco Inc., priority 2019, published 2023).

Where “and” joins values, the source holds several entries; their conditions need not be identical. Equal values may be shown once.

For one assay, the target named is NLRP3 inflammasome (Homo sapiens (Human), UniProt Q96P20). As to the kind of experiment: Evaluation of NLRP3 inflammasome inhibitory activity (inhibition of IL-1β production in THP1-Null cells, LPS/Nigericin).
NLRP3 inflammasome, sequence (Q96P20 whole entry): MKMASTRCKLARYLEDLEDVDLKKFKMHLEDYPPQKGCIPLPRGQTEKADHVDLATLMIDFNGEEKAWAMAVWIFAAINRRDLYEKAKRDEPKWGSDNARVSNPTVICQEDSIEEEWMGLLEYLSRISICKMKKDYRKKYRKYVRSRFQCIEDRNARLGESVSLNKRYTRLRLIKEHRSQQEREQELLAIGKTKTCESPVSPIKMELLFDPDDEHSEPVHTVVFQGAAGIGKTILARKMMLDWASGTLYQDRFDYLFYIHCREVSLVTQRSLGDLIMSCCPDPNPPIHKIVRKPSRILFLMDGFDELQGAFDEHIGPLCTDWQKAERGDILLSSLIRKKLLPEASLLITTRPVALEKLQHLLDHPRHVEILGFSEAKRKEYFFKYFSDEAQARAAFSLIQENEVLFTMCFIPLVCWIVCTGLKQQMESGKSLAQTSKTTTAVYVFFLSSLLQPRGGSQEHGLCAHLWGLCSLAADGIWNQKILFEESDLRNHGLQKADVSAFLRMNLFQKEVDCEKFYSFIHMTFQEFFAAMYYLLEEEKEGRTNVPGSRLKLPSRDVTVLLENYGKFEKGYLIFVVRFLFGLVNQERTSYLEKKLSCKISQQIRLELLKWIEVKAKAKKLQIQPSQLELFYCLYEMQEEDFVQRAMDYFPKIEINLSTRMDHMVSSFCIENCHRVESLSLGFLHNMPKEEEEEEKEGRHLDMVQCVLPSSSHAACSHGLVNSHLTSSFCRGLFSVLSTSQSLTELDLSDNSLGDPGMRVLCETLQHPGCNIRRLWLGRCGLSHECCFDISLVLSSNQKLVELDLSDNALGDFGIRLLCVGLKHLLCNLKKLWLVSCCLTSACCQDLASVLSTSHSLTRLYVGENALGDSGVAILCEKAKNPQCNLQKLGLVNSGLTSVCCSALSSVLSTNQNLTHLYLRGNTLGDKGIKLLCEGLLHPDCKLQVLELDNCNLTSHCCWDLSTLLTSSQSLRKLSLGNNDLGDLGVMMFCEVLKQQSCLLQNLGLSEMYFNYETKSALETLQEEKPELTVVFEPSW
Details: not given
A word on the IC50: it is the concentration needed to halve the response being measured. In the case of `CCC1COCCN1S(=O)(=O)NC(=O)c1cnc(Nc2c3c(cc4c2CCC4)CCC3)o1` (racemic) [Example 11], the IC50 was determined as 0.072 µM.

Molecule `Cc1ccc(C(F)(F)F)cc1Nc1nc(C(=O)NS(=O)(=O)N2CCCN(C(=O)C3CCOC3)CC2)co1` (racemic) [Example 2-216] had an IC50 of 0.18 µM.

For `O=C(NS(=O)(=O)N1CCC(O)C1)c1coc(Nc2c3c(c(Cl)c4c2CCC4)CCC3)n1` (racemic) [Example 41], the midpoint of inhibition, the IC50, lay at 0.077 µM.

Turning to `COC1COCCN(S(=O)(=O)NC(=O)c2coc(Nc3cc(C(F)(F)F)ccc3C(C)C)n2)C1` (racemic) [Example 2-121], the IC50 came to 0.035 µM.

For the molecule `O=C(NS(=O)(=O)N1CCCC1C(F)(F)F)c1coc(Nc2c3c(c(Cl)c4c2CCC4)CCC3)n1` (racemic) [Example 40], the IC50 is 0.93 µM.

With `COCC1CN(S(=O)(=O)NC(=O)c2coc(Nc3c(C(C)C)ccc4c3CCC4)n2)CCO1` (racemic) [Example 2-120], half-maximal inhibition (IC50) was put at 0.16 µM.

The molecule `CCOC1COCCN(S(=O)(=O)NC(=O)c2coc(Nc3cc(C(F)(F)F)ccc3C)n2)C1` (racemic) [Example 2-318] registered an IC50 of 0.077 µM. This IC50 is about 2.1-fold lower than that of the molecule before.

In the case of `Cc1ccc(C(F)(F)F)cc1Nc1nc(C(=O)NS(=O)(=O)N2CCOCC2c2ccccc2)co1` (racemic) [Example 2-346], the IC50 came out at 0.29 µM.

With `Cc1ccc(C(F)(F)F)cc1Nc1nc(C(=O)NS(=O)(=O)N2CCCN(S(=O)(=O)C3CCOC3)CC2)co1` (racemic) [Example 2-220], the IC50 was found to be 0.067 µM. This IC50 is about 4.3-fold lower than that of the molecule before.

`Cc1ccc(C(F)(F)F)cc1Nc1nc(C(=O)NS(=O)(=O)N2CCCOC(C)C2)co1` (racemic) [Example 2-230] yielded an IC50 of 0.089 µM.

Take `Cc1ccc(C2CC2)cc1Nc1nc(C(=O)NS(=O)(=O)N2CCC(O)C2)co1` (racemic) [Example 2-002]: the concentration for half-maximal inhibition (IC50) was determined as 0.16 µM.

`CCCN1CCN(S(=O)(=O)NC(=O)c2coc(Nc3cc(C(F)(F)F)ccc3C)n2)CCC1=O` [Example 2-320] yielded an IC50 of 0.6 µM.

As to `CCC1CN(S(=O)(=O)NC(=O)c2coc(Nc3cc(C(F)(F)F)ccc3C)n2)CCO1` (racemic) [Example 2-006], the IC50 amounted to 0.031 µM.

The same assay, now with this note: IL-1β production in THP1-Null cells, PMA/LPS primed, Nigericin 7.5 μmol/L.
Molecule `O=C1CCN(S(=O)(=O)NC(=O)c2coc(Nc3c4c(c(Cl)c5c3CCC5)CCC4)n2)C1` [Example 65] returned an IC50 of 0.063 µM.

The molecule `O=C(NS(=O)(=O)N1CCOCC12CCC2)c1cnc(Nc2c3c(cc4c2CCC4)CCC3)o1` [Example 9] had an IC50 of 0.21 µM.

As for `COCCN(C(C)C)S(=O)(=O)NC(=O)c1coc(Nc2c3c(c(Cl)c4c2CCC4)CCC3)n1` [Example 39], the IC50 was found to be 0.22 µM.

As for `O=C(NS(=O)(=O)N1CCCC1)c1cnc(Nc2c3c(cc4c2CCC4)CCC3)o1` [Example 6], the IC50 is less than 0.03 µM.

`Cc1ccc2c(c1Nc1nc(C(=O)NS(=O)(=O)N3CCCC3)co1)CCC2` [Example 31] came in with an IC50 of 0.31 µM.

Consider `O=C(NS(=O)(=O)NCc1ccccc1)c1cnc(Nc2c3c(cc4c2CCC4)CCC3)o1` [Example 8], for which the IC50 is 0.44 µM.

In turn, `CS(=O)(=O)C1CCN(S(=O)(=O)NC(=O)c2coc(Nc3c4c(c(F)c5c3CCC5)CCC4)n2)CC1` [Example 58] showed an IC50 of 0.039 µM.

As to `O=C(NS(=O)(=O)N1CCCCC1)c1cnc(Nc2c3c(cc4c2CCC4)CCC3)o1` [Example 3], the IC50 is 0.091 µM.

`O=C(NS(=O)(=O)N1CCCn2nccc21)c1coc(Nc2c3c(c(Cl)c4c2CCC4)CCC3)n1` [Example 46] came in with an IC50 of 0.35 µM.

`O=C(NS(=O)(=O)N1C2CCC1CC2)c1coc(Nc2c3c(c(Cl)c4c2CCC4)CCC3)n1` [Example 50] returned an IC50 of 0.72 µM. Against the preceding molecule, the IC50 is about 2.1-fold higher.

With `CC(C)NS(=O)(=O)NC(=O)c1cnc(Nc2c3c(cc4c2CCC4)CCC3)o1` [Example 7], the IC50 turned out to be 0.2 µM.

As to `CN(C)S(=O)(=O)NC(=O)c1cnc(Nc2c3c(c(Cl)c4c2CCC4)CCC3)o1` [Example 14], the IC50 was determined as 0.097 µM.

Molecule `O=C(NS(=O)(=O)N1C[C@H]2COC[C@H]2C1)c1coc(Nc2c3c(c(Cl)c4c2CCC4)CCC3)n1` [Example 61] gave an IC50 of 0.17 µM.

`CC1(O)CCN(S(=O)(=O)NC(=O)c2coc(Nc3c4c(c(F)c5c3CCC5)CCC4)n2)C1` (racemic) [Example 33, 2-((8-fluoro-1,2,3,5,6,7-hexahydro-s-indacen-4-yl)amino)-N-((3-hydroxy-3-methylpyrrolidin-1-yl)sulfonyl)oxazole-4-carboxamide] showed an IC50 of 0.099 µM.

For `CC(=O)N1CCN(S(=O)(=O)NC(=O)c2coc(Nc3c4c(c(Cl)c5c3CCC5)CCC4)n2)CC1` [Example 54], the IC50 stood at 0.17 µM.

Take `O=C(NS(=O)(=O)N1CCS(=O)(=O)CC1)c1coc(Nc2c3c(c(Cl)c4c2CCC4)CCC3)n1` [Example 42]: the IC50 is 0.97 µM.

Turning to `Cc1cc(Nc2nc(C(=O)NS(=O)(=O)N3CCOC(CS(=O)(=O)C(C)C)CC3)co2)c(C)cc1F` (stereo not drawn) [Example 3-004], the IC50 was determined as 0.026 µM.

`C[C@H]1CCCN1S(=O)(=O)NC(=O)c1coc(Nc2c3c(c(Cl)c4c2CCC4)CCC3)n1` [Example 44] registered an IC50 of 0.23 µM.

On to `CO[C@@H]1CCN(S(=O)(=O)NC(=O)c2coc(Nc3c4c(c(Cl)c5c3CCC5)CCC4)n2)C1` [Example 36], for which it took 0.092 µM to reach half-maximal inhibition (IC50).

In turn, `O=C(NS(=O)(=O)N1CCCC1)c1coc(Nc2c3c(c(F)c4c2CCC4)CCC3)n1` [Example 35] had an IC50 of less than 0.03 µM.

Staying with this assay, now noted: inhibition of IL-1β production in THP1-Null cells.
`Cc1ccc(C(C)(F)F)cc1Nc1nc(C(=O)NS(=O)(=O)N2CCOCC2)co1` [Example 2-015] returned an IC50 of 0.038 µM.

Molecule `Cc1cn(C(C)C)nc1Nc1nc(C(=O)NS(=O)(=O)N(C)C)co1` [Example 2-039] showed a half-inhibitory concentration (IC50) of 0.5 µM.

`Cc1ccc(C2CC2)cc1Nc1nc(C(=O)NS(=O)(=O)N2CCCOCC2)co1` [Example 2-042]: inhibition was half-maximal at 0.056 µM (IC50).

On to `CCc1ccc(C(F)(F)F)cc1Nc1nc(C(=O)NS(=O)(=O)N(C)C)co1` [Example 2-060], for which 0.046 µM corresponded to half-maximal inhibition (IC50).

Turning to `Cc1ccc(C)c(Nc2nc(C(=O)NS(=O)(=O)N3CCCOCC3)co2)c1` [Example 2-073], half-maximal inhibition (IC50) required 0.28 µM.

`Cc1ccc(CC(F)(F)F)cc1Nc1nc(C(=O)NS(=O)(=O)N2CCCOCC2)co1` [Example 2-063] displayed an IC50 of 0.067 µM.

`COCC1CCN(S(=O)(=O)NC(=O)c2coc(Nc3cc(C(C)C)ccc3C)n2)CCO1` (stereo not drawn) [Example 2-295]: the IC50 came to 0.03 µM.

`Cc1ccc(Br)cc1Nc1nc(C(=O)NS(=O)(=O)N2CCCOCC2)co1` [Example 2-140]: the IC50 was found to be 0.074 µM. This IC50 is about 2.5-fold higher than that of the molecule before.

On to `CC(C)c1cn(C(C)C)nc1Nc1nc(C(=O)NS(=O)(=O)N(C)C(C)C)co1` [Example 2-138], for which half-maximal inhibition (IC50) was put at 0.092 µM. This IC50 and that of the molecule before are within 1.5-fold of each other.

Take `O=C(NS(=O)(=O)N1CCOCC1)c1csc(Nc2c3c(cc4c2CCC4)CCC3)n1` [Example 2-012]: the IC50 is 0.06 µM and < 0.03 µM.

Molecule `Cc1cn(C(C)C)nc1Nc1nc(C(=O)NS(=O)(=O)N2CCCOCC2)co1` [Example 2-147] registered an IC50 of 0.42 µM.

As for `CCCCC(=O)N1CCCN(S(=O)(=O)NC(=O)c2coc(Nc3cc(C(F)(F)F)ccc3C)n2)CC1` [Example 2-182], the IC50 was found to be 0.01 µM.

The molecule `Cc1ccc(C(F)(F)F)cc1Nc1nc(C(=O)NS(=O)(=O)N2CCOCC2)cs1` [Example 2-065] had an IC50 of 0.032 µM.

Turning to `Cc1ncc(C(F)(F)F)cc1Nc1nc(C(=O)NS(=O)(=O)N2CCCOCC2)co1` [Example 2-104], the IC50 worked out at 1.8 µM.

The molecule `CC(C)n1cc(Nc2nc(C(=O)NS(=O)(=O)N3CCCOCC3)co2)c(C(F)(F)F)n1` [Example 2-169] gave an IC50 of 1.7 µM. This IC50 and that of the molecule before are within 1.5-fold of each other.

`CC(C)c1nn(C(C)C)cc1Nc1nc(C(=O)NS(=O)(=O)N(C)C)co1` [Example 2-089] yielded an IC50 of 1.2 µM.

In turn, `CC(C)n1cc(Nc2nc(C(=O)NS(=O)(=O)N3CCCOCC3)co2)c(C2CCC2)n1` [Example 2-196] registered a half-maximal inhibitory concentration (IC50) of 2.7 µM.

Molecule `Cc1c(Nc2nc(C(=O)NS(=O)(=O)N3CCCOCC3)co2)c(C(C)C)nn1C(C)C` [Example 2-227] displayed an IC50 of 1.5 µM. Compared with the last molecule, the IC50 is about 1.8-fold lower.

In the case of `CCCS(=O)(=O)N1CCCN(S(=O)(=O)NC(=O)c2coc(Nc3cc(C)cc(C)c3C)n2)CC1` [Example 2-288], half-maximal inhibition (IC50) was put at 0.12 µM.

Take `COC1CN(S(=O)(=O)NC(=O)c2coc(Nc3cc(C(F)(F)F)ccc3C)n2)C1` [Example 2-057]: inhibition was half-maximal at 0.57 µM (IC50).

In turn, `CC(C)c1cn(C(C)C)nc1Nc1nc(C(=O)NS(=O)(=O)N(C)C)co1` [Example 2-117] yielded an IC50 of 0.11 µM.

In turn, `COC(=O)N1CCCN(S(=O)(=O)NC(=O)c2coc(Nc3cc(C(F)(F)F)ccc3C)n2)CC1` [Example 2-101] returned an IC50 of 0.039 µM.

The molecule `Cc1ccnc(N2CCCN(S(=O)(=O)NC(=O)c3coc(Nc4cc(C(F)(F)F)ccc4C)n3)CC2)n1` [Example 2-211] came in with an IC50 of 0.016 µM.

In turn, `CCC(=O)N1CCCN(S(=O)(=O)NC(=O)c2coc(Nc3cc(C(F)(F)F)ccc3C)n2)CC1` [Example 2-102] returned an IC50 of 0.05 µM.

In turn, `Cc1ccc(C(F)(F)F)nc1Nc1nc(C(=O)NS(=O)(=O)N(C)C)co1` [Example 2-087] showed an IC50 of 0.55 µM.

As to `CC(C)c1cn(C(C)C)nc1Nc1nc(C(=O)NS(=O)(=O)N2CCCC2)co1` [Example 2-139], it took 0.27 µM to reach half-maximal inhibition (IC50). This IC50 is about 2-fold lower than that of the molecule before.

`Cc1cnc(C(F)(F)F)cc1Nc1nc(C(=O)NS(=O)(=O)N(C)C)co1` [Example 2-074] came in with an IC50 of 11 µM.

For `CCOCC1CCN(S(=O)(=O)NC(=O)c2coc(Nc3cc(C(F)(F)F)ccc3C)n2)CCO1` (stereo not drawn) [Example 2-301], the midpoint of inhibition, the IC50, lay at 0.011 µM.

`Cc1ccc(C(F)(F)F)cc1Nc1nc(C(=O)NS(=O)(=O)N2CCC(=O)N(C)CC2)co1` [Example 2-093] returned an IC50 of 0.059 µM.

`CCCS(=O)(=O)N1CCCN(S(=O)(=O)NC(=O)c2coc(Nc3cc(C(F)F)ccc3C(C)C)n2)CC1` [Example 2-224] had an IC50 of 0.027 µM.

The molecule `Cc1ccc(C(F)(F)F)cc1Nc1nc(C(=O)NS(=O)(=O)N2CCCNCC2)co1` [Example 2-029] gave an IC50 of 0.18 µM. This IC50 is about 6.7-fold higher than that of the molecule before.

In turn, `Cc1ccc(C(C)C)cc1Nc1nc(C(=O)NS(=O)(=O)N2CCCOCC2)co1` [Example 2-047] displayed an IC50 of less than 0.03 µM.

The assay is the same for the next values; noted with them: read-out: % inhibition at 3 μM.
As usually defined, the inhibition is the drop in the measured response relative to a control, in per cent. Turning to `O=C(NS(=O)(=O)N1CCCOCC1)c1coc(Nc2cc(C(F)(F)F)ccc2Cl)n1` [Example 2-136], the inhibition at 3 µM was -1.6%.
